Experiments:
[1] = test system: recombinant NL4-3 virus (Renilla luciferase in nef) in MT-2 cells; experiment: whole plant or invertebrate; format: cell-based, HIV; settings: Renilla, NL43, MT-2 cells infected for 4-5 days with recombinant NL4-3 Renilla luciferase virus; luciferase activity
Summary of the method: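 MT-2 cells infected for 4-5 days with NL4-3 reporter virus (Renilla luciferase replacing part of nef, produced by transfection of 293T cells) in the presence of serial compound dilutions. Antiviral activity quantified by luciferase activity read with a live-cell substrate.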

[2] = Compound cytotoxicity, XTT-based colorimetric assay; format: cell-based; settings: human, uninfected MT2 cells, day 4, XTT
Summary of the method: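 Run under the antiviral-assay protocol but without virus. Viability was read on day 4 and CC50 values were derived from the readout.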

SMILES	EC50 [1] [µM]	CC50 at 4 days [2] [µM]
COc1ccc(N(C)C(=O)[C@H](Cc2cc(F)cc(F)c2)NC(=O)CN2c3ccccc3N(CC(=O)N[C@@H](Cc3cc(F)cc(F)c3)C(=O)N(C)c3ccc(OC)nc3)S2(=O)=O)cn1 [Example 197]	0.01	9.3
COc1ccc(N(C)C(=O)[C@H](Cc2ccccc2)NC(=O)Cn2c(=O)c3ccccc3n(CC(=O)N[C@@H](Cc3ccccc3)C(=O)N(C)c3ccc(OC)cc3)c2=O)cc1 [Example 100]	0.07	≥ 100
COc1ccc(N(C)C(=O)[C@H](Cc2ccccc2)NC(=O)Cn2c(=O)n(CC(=O)N[C@@H](Cc3ccccc3)C(=O)N(C)c3ccc(OC)cc3)c3cc(N)ccc32)cc1 [Example 90]	0.34	22.7
CN(C(=O)[C@H](Cc1cc(F)cc(F)c1)NC(=O)NS(=O)(=O)N[C@@H](Cc1cc(F)cc(F)c1)C(=O)N(C)c1ccc(Cl)cc1)c1ccc(Cl)cc1 [Example 165]	0.04	30.3
COc1ccc(N(C)C(=O)[C@H](Cc2cc(F)cc(F)c2)NC(=O)Cn2c(=O)c3ccccc3n(CC(=O)N[C@@H](Cc3cc(F)cc(F)c3)C(=O)N(C)c3ccc(OC)cc3)c2=O)cc1 [Example 101]	0.03	≥ 100
COc1ccc(N(C)C(=O)[C@H](Cc2cc(F)cc(F)c2)NC(=O)NS(=O)(=O)N[C@@H](Cc2cc(F)cc(F)c2)C(=O)N(C)c2ccc(OC)nc2)cn1 [Example 176]	0.04	≥ 100
Cc1ccc(N(C)C(=O)[C@H](Cc2cc(F)cc(F)c2)NC(=O)c2ccc(F)c(C(=O)N[C@@H](Cc3cc(F)cc(F)c3)C(=O)N(C)c3ccc(C)nc3)c2)cn1 [Example 184]	0.19	11.1
CN(C(=O)[C@H](Cc1cc(F)cc(F)c1)NC(=O)c1cccc(S(=O)(=O)N[C@@H](Cc2cc(F)cc(F)c2)C(=O)N(C)c2ccc3scnc3c2)c1)c1ccc2scnc2c1 [Example 107]	0.3	≥ 100
COc1ccc(N(C)C(=O)[C@H](Cc2cc(F)cc(F)c2)NC(=O)c2cc(F)c(F)cc2C(=O)N[C@@H](Cc2cc(F)cc(F)c2)C(=O)N(C)c2ccc(OC)cc2)cc1 [Example 254]	0.09	10
CN(C(=O)[C@H](Cc1cc(F)cc(F)c1)NS(=O)(=O)CS(=O)(=O)N[C@@H](Cc1cc(F)cc(F)c1)C(=O)N(C)c1ccc2scnc2c1)c1ccc2scnc2c1 [Example 202]	0.08	≥ 100
CN(C(=O)[C@H](Cc1ccccc1)NC(=O)c1ccnc(N[C@@H](Cc2ccccc2)C(=O)N(C)c2ccc3scnc3c2)n1)c1ccc2scnc2c1 [Example 154]	1.86	≥ 100
COc1ccc(-n2ccnc2[C@H](Cc2ccccc2)NC(=O)c2cccc(C(=O)N[C@@H](Cc3ccccc3)c3nccn3-c3ccc(OC)cc3)c2)cc1 [Example 161]	2.8	73.9
CN(C(=O)[C@H](Cc1cc(F)cc(F)c1)NC(=O)NS(=O)(=O)N[C@@H](Cc1cc(F)cc(F)c1)C(=O)N(C)c1cccnc1)c1cccnc1 [Example 236]	4.14	≥ 100
COc1ccc(N(C)C(=O)[C@H](Cc2cc(F)cc(F)c2)NC(=O)Cn2c(=O)n(CC(=O)N[C@@H](Cc3cc(F)cc(F)c3)C(=O)N(C)c3ccc(OC)cc3)c3cc(Cl)ccc32)cc1 [Example 72]	0.04	4.4
COc1ccc(N(C)C(=O)[C@H](Cc2ccccc2)NC(=O)C2CCCCC2C(=O)N[C@@H](Cc2ccccc2)C(=O)N(C)c2ccc(OC)cc2)cc1 (mixture of isomers) [Example 53]	0.34	≥ 33.3
COc1ccc(N(CCF)C(=O)[C@H](Cc2cc(F)cc(F)c2)NC(=O)CN2c3ccccc3N(CC(=O)N[C@@H](Cc3cc(F)cc(F)c3)C(=O)N(CCF)c3ccc(OC)cc3)S2(=O)=O)cc1 [Example 122]	0.09	≥ 100
COc1ccc(N(C)C(=O)[C@H](Cc2ccccc2)NC(=O)NS(=O)(=O)N[C@@H](Cc2ccccc2)C(=O)N(C)c2ccc3c(c2)OCO3)cc1 [Example 14]	0.08	≥ 50
COc1ccc(N(C)C(=O)[C@H](Cc2ccccc2)NC(=O)CCCC(=O)N[C@@H](Cc2ccccc2)C(=O)N(C)c2ccc(OC)cc2)cc1 [Example 22]	1.31	21.1
COc1ccc(N(C)C(=O)[C@H](Cc2cc(F)cc(F)c2)NC(=O)c2ccc(F)c(C(=O)N[C@@H](Cc3cc(F)cc(F)c3)C(=O)N(C)c3ccc(OC)c(F)c3)c2)cc1F [Example 232]	0.18	≥ 33.3

SMILES	EC50 [1] [µM]	CC50 at 4 days [2] [µM]
CN(C(=O)[C@H](Cc1cc(F)cc(F)c1)Nc1ccnc(N[C@@H](Cc2cc(F)cc(F)c2)C(=O)N(C)c2ccc3scnc3c2)n1)c1ccc2scnc2c1 [Example 146]	2.86	30.6
C=CCN(C(=O)[C@H](Cc1cc(F)cc(F)c1)NS(=O)(=O)c1cccc(S(=O)(=O)N[C@@H](Cc2cc(F)cc(F)c2)C(=O)N(CC=C)c2ccc(OC)cc2)c1)c1ccc(OC)cc1 [Example 187]	3.78	≥ 100
CN(C(=O)[C@H](Cc1ccccc1)NC(=O)NS(=O)(=O)N[C@@H](Cc1ccccc1)C(=O)N(C)c1ccc2c(c1)OCO2)c1ccc2c(c1)OCO2 [Example 19]	0.17	99.5
COc1ccc(N(C)C(=O)[C@H](Cc2ccccc2)NC(=O)c2cc(C(=O)N[C@@H](Cc3ccccc3)C(=O)N(C)c3ccc(OC)cc3)n(C)n2)cc1 [Example 115]	2.13	≥ 100
C=CCCN(C(=O)[C@H](Cc1cc(F)cc(F)c1)NC(=O)NS(=O)(=O)N[C@@H](Cc1cc(F)cc(F)c1)C(=O)N(CCC=C)c1ccc(OC)cc1)c1ccc(OC)cc1 [Example 121]	0.73	18.8
COc1ccc(N(C)C(=O)[C@H](Cc2cc(F)cc(F)c2)Nc2ncc(-c3cnc(N[C@@H](Cc4cc(F)cc(F)c4)C(=O)N(C)c4ccc(OC)cc4)nc3)cn2)cc1 [Example 88]	13.7	20.8
CCN(C(=O)[C@H](Cc1cc(F)cc(F)c1)NC(=O)CN1c2ccccc2N(CC(=O)N[C@@H](Cc2cc(F)cc(F)c2)C(=O)N(CC)c2ccc3oc(=O)n(Cc4ccccc4)c3c2)S1(=O)=O)c1ccc2oc(=O)n(Cc3ccccc3)c2c1 [Example 153]	1.54	3.1
CCOc1ccc(N(CC)C(=O)[C@H](Cc2ccccc2)NC(=O)NS(=O)(=O)N[C@@H](Cc2ccccc2)C(=O)N(CC)c2ccc(OCC)cc2)cc1 [Example 5]	0.15	≥ 33.3
COc1ccc(N(C)C(=O)[C@H](Cc2ccccc2)NC(=O)NS(=O)(=O)N[C@@H](Cc2cc(F)cc(F)c2)C(=O)N(C)c2ccc(OC)cc2)cc1 [Example 44]	0.02	67
COc1ccc(N(C)C(=O)[C@H](Cc2cc(F)cc(F)c2)NC(=O)Cn2c(=O)n(CC(=O)N[C@@H](Cc3cc(F)cc(F)c3)C(=O)N(C)c3ccc(OC)cc3)c3ccccc32)cc1 [Example 69]	0.02	11.8
CCN(C(=O)[C@H](Cc1cc(F)cc(F)c1)NC(=O)CN1c2ccccc2N(CC(=O)N[C@@H](Cc2cc(F)cc(F)c2)C(=O)N(CC)c2ccc(NC(=O)OC)cc2)S1(=O)=O)c1ccc(NC(=O)OC)cc1 [Example 148]	0.72	≥ 100
COc1ccc(N(C)C(=O)[C@H](Cc2cc(F)cc(F)c2)NC(=O)Cn2c(=O)n(CC(=O)N[C@@H](Cc3cc(F)cc(F)c3)C(=O)N(C)c3ccc(OC)cc3)c3cc(F)ccc32)cc1 [Example 76]	0.03	11.4
CN(C(=O)[C@H](Cc1ccccc1)NC(=O)CS(=O)(=O)N[C@@H](Cc1ccccc1)C(=O)N(C)c1ccc2scnc2c1)c1ccc2scnc2c1 [Example 65]	0.32	34.6
COc1ccc(N(C)C(=O)[C@H](Cc2ccccc2)NC(=O)c2cncc(C(=O)N[C@@H](Cc3ccccc3)C(=O)N(C)c3ccc(OC)cc3)n2)cc1 [Example 111]	0.96	≥ 100
Cc1cc(N(C)C(=O)[C@H](Cc2ccccc2)NC(=O)NS(=O)(=O)N[C@@H](Cc2ccccc2)C(=O)N(C)c2ccc(F)c(C)c2)ccc1F [Example 229]	2.64	64.7
COc1ccc(N(C)C(=O)[C@H](Cc2ccccc2)NC(=O)c2cc(C(=O)O)cc(C(=O)N[C@@H](Cc3ccccc3)C(=O)N(C)c3ccc(OC)cc3)c2)cc1 [Example 55]	10.1	85.8
COc1ccc(N(C)C(=O)[C@H](Cc2ccccc2)NC(=O)NS(=O)(=O)N[C@@H](Cc2ccccc2)C(=O)N(C)c2ccc(OC)cc2)cc1 [Example 2]	0.03	77.9
CN(C(=O)[C@H](Cc1cc(F)cc(F)c1)NC(=O)NS(=O)(=O)N[C@@H](Cc1cc(F)cc(F)c1)C(=O)N(C)c1ccc(C(F)(F)F)nc1)c1ccc(C(F)(F)F)nc1 [Example 199]	0.47	46.7
